This experiment concerns the target Acetylcholinesterase (Homo sapiens, UniProt P22303). Nature of the experiment: Inhibitory activity against acetylcholinesterase in human blood. In kind it is tissue-based.

1 molecule from ChEMBL document CHEMBL1123940, “Carbamate ester derivatives as potential prodrugs of the presynaptic dopamine autoreceptor agonist (-)-3-(3-hydroxyphenyl)-N-propylpiperidine” (J Med Chem, 1987) can be followed below.

Sequence of Acetylcholinesterase (P22303 whole entry): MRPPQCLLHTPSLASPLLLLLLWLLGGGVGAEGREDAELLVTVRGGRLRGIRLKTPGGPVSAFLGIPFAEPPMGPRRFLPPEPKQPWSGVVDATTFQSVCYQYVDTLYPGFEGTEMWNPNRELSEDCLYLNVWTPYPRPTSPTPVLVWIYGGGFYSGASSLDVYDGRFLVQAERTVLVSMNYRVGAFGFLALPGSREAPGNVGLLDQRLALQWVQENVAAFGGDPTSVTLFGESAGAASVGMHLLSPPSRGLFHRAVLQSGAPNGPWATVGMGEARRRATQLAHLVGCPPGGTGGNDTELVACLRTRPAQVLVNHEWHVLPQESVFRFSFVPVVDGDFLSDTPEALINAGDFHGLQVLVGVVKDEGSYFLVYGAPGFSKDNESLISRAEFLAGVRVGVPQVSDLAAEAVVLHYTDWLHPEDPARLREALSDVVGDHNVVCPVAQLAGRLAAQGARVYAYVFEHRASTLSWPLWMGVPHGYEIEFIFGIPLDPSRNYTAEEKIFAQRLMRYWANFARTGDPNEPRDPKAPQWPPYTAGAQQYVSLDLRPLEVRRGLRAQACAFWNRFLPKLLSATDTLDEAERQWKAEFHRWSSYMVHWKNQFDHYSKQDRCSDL

What is called IC50 is the concentration needed to halve the response being measured. A high value points to weaker potency. Molecule `CCCN1CCCC(c2cccc(OC(=O)NC(C)C)c2)C1` (stereo unspecified) returned an IC50 of 10 µM.
